Measured values reported in patent US9078444B2, “Isothiazoline derivatives as insecticidal compounds” (Syngenta Participations AG, priority 2011, dated 2015).

Assays:
Assay type in all cases: in vivo
[1] = test system: Spodoptera littoralis; test: Spodoptera littoralis (Egyptian cotton leafworm) cotton leaf disc test; details: foliar, 72 h, 200 ppm sprayed on cotton leaf discs, mortality, feeding behavior, growth regulation 3 days after treatment
Method: Spodoptera littoralis (Egyptian Cotton Leafworm): Cotton leaf discs were placed on agar in a 24-well microtiter plate and sprayed with test solutions at an application rate of 200 ppm. After drying, the leaf discs were infested with […]. The samples were checked for mortality, feeding behavior, and growth regulation 3 days after treatment (DAT).

[2] = test system: Heliothis virescens; test: Heliothis virescens (tobacco budworm) egg test on artificial diet; details: 96 h, 200 ppm (concentration in well 18 ppm), eggs on artificial diet, egg mortality, larval mortality, growth regulation after 4 days
Method: Heliothis virescens (Tobacco Budworm): Eggs (0-24 h old) were placed in 24-well microtiter plate on artificial diet and treated with test solutions at an application rate of 200 ppm (concentration in well 18 ppm) by pipetting. After an incubation period of 4 days, samples were checked for egg mortality, larval mortality, and growth regulation.

[3] = test system: Plutella xylostella; test: Plutella xylostella (diamond back moth) artificial diet test; details: 144 h, 200 ppm (concentration in well 18 ppm), L2 larvae, larval mortality and growth regulation after 6 days
Method: (§1) Plutella xylostella (Diamond Back Moth): 24-well microtiter plate (MTP) with artificial diet was treated with test solutions at an application rate of 200 ppm (concentration in well 18 ppm) by pipetting. After drying, the MTPs were infested with L2 larvae (7-12 per well). After an incubation period of 6 days, samples were checked for larval mortality and growth regulation.

[4] = test system: Diabrotica balteata; test: Diabrotica balteata (corn root worm) artificial diet test; details: 120 h, 200 ppm (concentration in well 18 ppm), L2 larvae, larval mortality and growth regulation after 5 days
Method: as §1, with “Diabrotica balteata (Corn Root Worm): A” for “Plutella xylostella (Diamond Back Moth):”, “(6-10” for “(7-12”, “5” for “6”

[5] = test system: Thrips tabaci; test: Thrips tabaci (onion thrips) sunflower leaf disc test; details: foliar, 168 h, 200 ppm sprayed on sunflower leaf discs, mixed ages, mortality after 7 days
Method: Thrips tabaci (Onion Thrips): Sunflower leaf discs were placed on agar in a 24-well microtiter plate and sprayed with test solutions at an application rate of 200 ppm. After drying, the leaf discs were infested with a thrips population of mixed ages. After an incubation period of 7 days, samples were checked for mortality.

[6] = test system: Tetranychus urticae; test: Tetranychus urticae (two-spotted spider mite) bean leaf disc test; details: foliar, 192 h, 200 ppm sprayed on bean leaf discs, mixed ages, egg, larval and adult mortality 8 days later
Text: Tetranychus urticae (Two-Spotted Spider Mite): Bean leaf discs on agar in 24-well microtiter plates were sprayed with test solutions at an application rate of 200 ppm. After drying, the leaf discs are infested with mite populations of mixed ages. 8 days later, discs are checked for egg mortality, larval mortality, and adult mortality.

Measured: pest or weed control at 200 ppm

CSCCNC(=O)c1ccc(C2=NSC(c3cc(Cl)cc(Cl)c3)(C(F)(F)F)C2)cc1C (stereo not drawn) [Compound A26]
≥ 80%: all assays above

Cc1cc(C2=NSC(c3cc(Cl)cc(Cl)c3)(C(F)(F)F)C2)ccc1C(=O)NC1CSC1 (stereo not drawn) [Compound A22, 4-[5-(3,5-Dichloro-phenyl)-5-trifluoromethyl-4,5-dihydro-isothiazol-3-yl]-2-methyl-N-thietan-3-yl-benzamide]
≥ 80%: all assays above

Cc1cc(C2=NSC(c3cc(Cl)cc(Cl)c3)(C(F)(F)F)C2)ccc1C(=O)NC(C)C (stereo not drawn) [Compound A39]
≥ 80%: all assays above

Cc1cc(C2=NSC(c3cc(Cl)cc(Cl)c3)(C(F)(F)F)C2)ccc1C(=O)NCC1CCS1 (stereo not drawn) [Compound A30]
≥ 80%: all assays above

CCNC(=O)c1ccc(C2=NSC(c3cc(Cl)cc(Cl)c3)(C(F)(F)F)C2)cc1C (stereo not drawn) [Compound A04]
≥ 80%: all assays above

CCCCNC(=O)c1ccc(C2=NSC(c3cc(Cl)cc(Cl)c3)(C(F)(F)F)C2)cc1C (stereo not drawn) [Compound A05]
≥ 80%: all assays above

CCC(C)NC(=O)c1ccc(C2=NSC(c3cc(Cl)cc(Cl)c3)(C(F)(F)F)C2)cc1C (stereo not drawn) [Compound A08]
≥ 80%: all assays above

Cc1cc(C2=NSC(c3cc(Cl)cc(Cl)c3)(C(F)(F)F)C2)ccc1C(=O)NCC1CCS1(=O)=O (stereo not drawn) [Compound A31]
≥ 80%: all assays above

Cc1cc(C2=NSC(c3cc(Cl)cc(Cl)c3)(C(F)(F)F)C2)ccc1C(=O)NCCF (stereo not drawn) [Compound A34]
≥ 80%: all assays above

Cc1cc(C2=NSC(c3cc(Cl)cc(Cl)c3)(C(F)(F)F)C2)ccc1C(=O)NC1CC1 (stereo not drawn) [Compound A52]
≥ 80%: all assays above

Cc1cc(C2=NSC(c3cc(Cl)cc(Cl)c3)(C(F)(F)F)C2)ccc1C(=O)NC1(C)CSC1 (stereo not drawn) [Compound A19]
≥ 80%: all assays above

N#Cc1cc(C2=NS[C@@](c3cc(Cl)c(Cl)c(Cl)c3)(C(F)(F)F)C2)ccc1-n1cncn1 [Compound B2, 2-(1,2,4-triazol-1-yl)-5-[(5S)-5-(3,4,5-trichlorophenyl)-5-(trifluoromethyl)-4H-isothiazol-3-yl]benzonitrile]
≥ 80%: all assays above

Cc1cc(C2=NSC(c3cc(Cl)cc(Cl)c3)(C(F)(F)F)C2)ccc1C(=O)NCc1ccccc1F (stereo not drawn) [Compound A11]
≥ 80%: all assays above

Cc1cc(C2=NSC(c3cc(Cl)cc(Cl)c3)(C(F)(F)F)C2)ccc1C(=O)NCC1CCCO1 (stereo not drawn) [Compound A09]
≥ 80%: all assays above

Cc1cc(C2=NSC(c3cc(Cl)cc(Cl)c3)(C(F)(F)F)C2)ccc1C(=O)Nc1ccccc1F (stereo not drawn) [Compound A60]
≥ 80%: all assays above

Cc1cc(C2=NSC(c3cc(Cl)c(Cl)c(Cl)c3)(C(F)(F)F)C2)ccc1C(=O)NC1CS(=O)(=O)C1 (stereo not drawn) [Compound D2, N-(1,1-dioxothietan-3-yl)-2-methyl-4-[5-(3,4,5-trichlorophenyl)-5-(trifluoromethyl)-4H-isothiazol-3-yl]benzamide]
≥ 80%: all assays above

Cc1cc(C2=NSC(c3cc(Cl)cc(Cl)c3)(C(F)(F)F)C2)ccc1C(=O)NC1CCc2ccccc21 (stereo not drawn) [Compound A50]
≥ 80%: all assays above

CNC(=O)c1ccc(C2=NSC(c3cc(Cl)cc(Cl)c3)(C(F)(F)F)C2)cc1C (stereo not drawn) [Compound A62]
≥ 80%: all assays above

N#Cc1cc(C2=NSC(c3cc(Cl)cc(Cl)c3)(C(F)(F)F)C2)ccc1-n1cncn1 (stereo not drawn) [Compound B1, 5-[5-(3,5-dichlorophenyl)-5-(trifluoromethyl)-4,5-dihydro-isothiazol-3-yl]-2-(1,2,4-triazol-1-yl)benzonitrile]
≥ 80%: all assays above

Cc1cc(C2=NSC(c3cc(Cl)cc(Cl)c3)(C(F)(F)F)C2)ccc1C(=O)Nc1ncccn1 (stereo not drawn) [Compound A38]
≥ 80%: all assays above
